Converted amounts (≈) assume the structure as drawn.
Assays:
Escherichia coli JR255 = test: Minimum inhibitory concentration, serial dilution on nutrient agar; assay type: cell-based; conditions: JR255, 18 h
Escherichia coli K-12 R5 = test: as above; assay type: cell-based; conditions: K12R5, 18 h
[1] = tested on: Micrococcus flavus FDA 16; test: as above; assay type: cell-based; conditions: FDA16, 18 h
[2] = tested on: Bacillus cereus ATCC 10702; test: as above; assay type: cell-based; conditions: ATCC10702, 18 h
[3] = tested on: Escherichia coli K-12 LA 290 R56; test: as above; assay type: cell-based; conditions: K12LA290R56, 18 h
[4] = tested on: Staphylococcus aureus AP01; test: as above; assay type: cell-based; conditions: 37° C., 18 hours incubation
Providencia Pv 16 = test: as above; assay type: cell-based; conditions: PV16, 37° C., 18 hours incubation
[5] = tested on: Pseudomonas aeruginosa ROS134/PU21; test: as above; assay type: cell-based; conditions: ROS134/PU21, 18 h
[6] = tested on: Staphylococcus aureus 209P; test: as above; assay type: cell-based; conditions: 37° C., 18 hours incubation
Proteus vulgaris OX19 = test: as above; assay type: cell-based; conditions: 37° C., 18 hours incubation
Escherichia coli K-12 = test: as above; assay type: cell-based; conditions: K12, 18 h
Escherichia coli W677 = test: as above; assay type: cell-based; conditions: W677, 18 h
[7] = tested on: Pseudomonas aeruginosa H9; test: as above; assay type: cell-based; conditions: H9, 18 h
Escherichia coli NIHJ = test: as above; assay type: cell-based; conditions: 18 h
[8] = tested on: Klebsiella pneumoniae PCI 602; test: as above; assay type: cell-based; conditions: PCI602, 18 h
[9] = tested on: Mycobacterium smegmatis ATCC 607; test: as above; assay type: cell-based; conditions: Mycolicibacterium smegmatis, ATCC607; nutrient agar, 37° C., 18 hours incubation; read-out: MIC
[10] = tested on: Salmonella enteritidis 1891; test: as above; assay type: cell-based; conditions: Salmonella enterica, 18 h
[11] = tested on: Shigella dysenteriae JS 11910; test: as above; assay type: cell-based; conditions: JS11910, 18 h
Serratia 4 = test: as above; assay type: cell-based; conditions: 37° C., 18 hours incubation
Salmonella typhi T-63 = test: as above; assay type: cell-based; conditions: Salmonella enterica, 18 h
Providencia 2991 = test: as above; assay type: cell-based; conditions: 37° C., 18 hours incubation
[12] = tested on: Escherichia coli K-12 LA 290 R55; test: as above; assay type: cell-based; conditions: K12LA290R55, 18 h
Serratia SOU = test: as above; assay type: cell-based; conditions: 37° C., 18 hours incubation
[13] = tested on: Pseudomonas aeruginosa TI-13; test: as above; assay type: cell-based; conditions: TI13, 18 h
[14] = tested on: Pseudomonas aeruginosa B-13; test: as above; assay type: cell-based; conditions: B13, 37° C., 18 hours incubation
[15] = tested on: Escherichia coli K-12 R 388; test: as above; assay type: cell-based; conditions: K12R388, 18 h
[16] = tested on: Pseudomonas aeruginosa No. 12; test: as above; assay type: cell-based; conditions: NO.12, 18 h
[17] = tested on: Escherichia coli K-12 LA 290 R64; test: as above; assay type: cell-based; conditions: K12LA290R64, 18 h
[18] = tested on: Klebsiella pneumoniae 22 #3038; test: as above; assay type: cell-based; conditions: 18 h
Bacillus anthracis = test: microbe, parasite or virus in culture; assay type: cell-based; conditions: 18 h
Sarcina lutea PCI 1001 = test: Minimum inhibitory concentration, serial dilution on nutrient agar; assay type: cell-based; conditions: Micrococcus luteus, PCI1001, 18 h
[19] = tested on: Staphylococcus epidermidis 109; test: as above; assay type: cell-based; conditions: Staphylococcus epidermidis, 109; nutrient agar, 37° C., 18 hours incubation; read-out: MIC
[20] = tested on: Escherichia coli K-12 ML 1629; test: as above; assay type: cell-based; conditions: K12ML1629, 18 h
Serratia marcescens = test: as above; assay type: cell-based; conditions: 37° C., 18 hours incubation
Proteus rettgeri GN311 = test: as above; assay type: cell-based; conditions: Providencia rettgeri, 37° C., 18 hours incubation
[21] = tested on: Pseudomonas aeruginosa PST1; test: as above; assay type: cell-based; conditions: PST1, nutrient agar, 37° C., 18 hours incubation, read-out: MIC
[22] = tested on: Pseudomonas aeruginosa 99; test: as above; assay type: cell-based; conditions: Pseudomonas aeruginosa, 99, 18 h
[23] = tested on: Pseudomonas aeruginosa GN315; test: as above; assay type: cell-based; conditions: GN315, 18 h
[24] = tested on: Pseudomonas aeruginosa A3; test: as above; assay type: cell-based; conditions: 37° C., 18 hours incubation
[25] = Acute toxicity by intravenous injection in mice; conditions: mouse, in vivo
[26] = tested on: Escherichia coli K-12 ML 1410; test: Minimum inhibitory concentration, serial dilution on nutrient agar; assay type: cell-based; conditions: K12ML1410, 18 h
[27] = tested on: Pseudomonas aeruginosa 21-75; test: as above; assay type: cell-based; conditions: 2175, 37° C., 18 hours incubation

What does the source list for `CNC[C@@H]1CC[C@@H](N)[C@@H](O[C@H]2C[C@@H](O[C@H]3O[C@H](CO)[C@@H](O)[C@H](N)[C@H]3O)[C@H](NC(=O)[C@@H](O)CCCN)C[C@@H]2N)O1` [AHV-trideoxyMKMB, 1-N-[(S)-5-amino-2-hydroxyvaleryl]-5,3',4'-trideoxy-6'-N-methylkanamycin B]?
MIC (Escherichia coli JR255): 1.56 µg/mL (≈ 2.76 µM); MIC (Escherichia coli K-12 R5): 6.25 µg/mL (≈ 11.1 µM); MIC [1]: 3.13 µg/mL (≈ 5.54 µM); MIC [2]: 1.56 µg/mL (≈ 2.76 µM); MIC [3]: 1.56 µg/mL (≈ 2.76 µM); MIC [4]: 0.39 µg/mL (≈ 0.691 µM); MIC (Providencia Pv 16): 25 µg/mL (≈ 44.3 µM); MIC [5]: 50 µg/mL (≈ 88.5 µM); MIC [6]: 0.2 µg/mL (≈ 0.354 µM); MIC (Proteus vulgaris OX19): 0.78 µg/mL (≈ 1.38 µM); MIC (Escherichia coli K-12): 1.56 µg/mL (≈ 2.76 µM); MIC (Escherichia coli W677): 1.56 µg/mL (≈ 2.76 µM); MIC [7]: 3.13 µg/mL (≈ 5.54 µM); MIC (Escherichia coli NIHJ): 1.56 µg/mL (≈ 2.76 µM); MIC [8]: 1.56 µg/mL (≈ 2.76 µM); MIC [9]: 0.39 µg/mL (≈ 0.691 µM); MIC [10]: 3.13 µg/mL (≈ 5.54 µM); MIC [11]: 6.25 µg/mL (≈ 11.1 µM); MIC (Serratia 4): 12.5 µg/mL (≈ 22.1 µM); MIC (Salmonella typhi T-63): 3.13 µg/mL (≈ 5.54 µM); MIC (Providencia 2991): 25 µg/mL (≈ 44.3 µM); MIC [12]: 3.13 µg/mL (≈ 5.54 µM); MIC (Serratia SOU): 50 µg/mL (≈ 88.5 µM); MIC [13]: 1.56 µg/mL (≈ 2.76 µM); MIC [14]: 12.5 µg/mL (≈ 22.1 µM); MIC [15]: 1.56 µg/mL (≈ 2.76 µM); MIC [16]: 3.13 µg/mL (≈ 5.54 µM); MIC [17]: 1.56 µg/mL (≈ 2.76 µM); MIC [18]: 3.13 µg/mL (≈ 5.54 µM); MIC (Bacillus anthracis): < 0.2 µg/mL; MIC (Sarcina lutea PCI 1001): 1.56 µg/mL (≈ 2.76 µM); MIC [19]: < 0.2 µg/mL; MIC [20]: 3.13 µg/mL (≈ 5.54 µM); MIC (Serratia marcescens): 12.5 µg/mL (≈ 22.1 µM); MIC (Proteus rettgeri GN311): 100 µg/mL (≈ 177 µM); MIC [21]: 12.5 µg/mL (≈ 22.1 µM); MIC [22]: 6.25 µg/mL (≈ 11.1 µM); MIC [23]: 3.13 µg/mL (≈ 5.54 µM); MIC [24]: 0.39 µg/mL (≈ 0.691 µM); LD50 [25]: 50 to 100 mg/kg; MIC [26]: 3.13 µg/mL (≈ 5.54 µM); MIC [27]: 12.5 µg/mL (≈ 22.1 µM)
